Experimental data from US20100152303A1, “AGENTS AND METHOD FOR […] […]” (priority 2000, published 2010).

Experiments:
[1] = cited from earlier work
[2] = tested on: ERP57; experiment: Effect of methoxychlor on ERP57 concentration in rat livers (immunoelectrophoresis of liver microsomes); type: in vivo; settings: male CD rats, gavage in corn oil, 14 days, dosages 10, 50, and 100 mg/kg/day
From the text: The purpose of this experiment was to determine the effect of administering varying levels of methoxychlor for 14 days on the levels of the microsomal protein ERP57 in mammalian tissues.
Methoxychlor, potassium chloride, and Tris were purchased from Sigma Chemicals (St. Louis, Mo.). The BCA (Bicinchoninic Acid) Assay kits were purchased from Pierce Chemical Company (Rockford, Ill.). Agarose was purchased from Boehringer Mannheim (Indianapolis, Ind.). Polyclonal antibodies to the ERP57 were developed in laying hens as previously described (Srivastava et al. 1991, J. Biol. Chem. 266: 20337-20344; Chen et al. 1996, Biochemistry 25: 8299-8306).
The animals used in these studies were 150-200 g fed, male, CD rats from Harlan Laboratories. […] The microsomal suspensions were aliquoted and stored at −80° C. until analyzed.
The concentrations of total microsomal protein were then determined via the BCA assay. […]
The concentration of ERP57 in the samples was determined with immunoelectrophoresis. […]
The indicator dye was a combination of nitroblue tetrazolium and 5-bromo-4-chloro-3-indoyl phosphate from Bio Rad (Richmond, Calif.). […] The densities of the stained bands were determined on a flat bed scanner from UMAX (Taiwan, China). The scans were analyzed using NIH Image (version 1.54) on a PowerPC (Apple Computer). The blank for each band was determined from the adjacent, unreacted area in the lane.

Structure (SMILES): COc1ccc(C(c2ccc(OC)cc2)C(Cl)(Cl)Cl)cc1 [methoxychlor, 1,1,1-trichloro-2,2-bis-(4-methoxyphenyl)ethane]
- rat oral LD50 [1]: > 6000 mg/kg
- relative concentration of ERP57 in the rat liver, normalized by total microsomal protein [2]: significant increase
